Test results published in PMC4821601, “The Interactions of P-Glycoprotein with Antimalarial Drugs, Including Substrate Affinity, Inhibition and Regulation” (PLoS ONE, 2016).
Like-named read-outs stand apart in the source and are kept apart here. Marks after values point to notes of the source that are not given here.

Legend:
[1] = tested on: P-gp; conditions: cited from earlier work
[2] = Bidirectional transport (Papp, efflux ratio) of antimalarials through Caco-2 cell monolayers; type: in vitro ADME, human; conditions: human; for Papp at 120 min: Caco-2, Caco-2 monolayers
Experimental: (§1) The initial experiments were conducted in mid-40s passage cells and repeated in early 80s passage Caco-2 cells. […] In order to maintain equivalent transport medium (HBSS/HBSS with inhibitor) level both outside and inside the chambers, 300 μL was used as medium in the apical chambers and 600 μL in the basolateral chambers. […] Drugs were co-incubated with MRCP, BCRP and ATP hydrolysis blockers to determine the involvement of other efflux mechanisms. Prior to the experiment, the transport medium, HBSS or HBSS with P-gp inhibitors were pre-incubated with the cells for 30 minutes. Following incubation, inserts were placed in new well plates and donor chamber is replaced with drug or drug with inhibitor and the receiver chamber with blank HBSS or HBSS with inhibitor. Transport medium was collected from the receiver chamber after stirring at time intervals of 30, 60, 90 and 120 minutes and was replaced with the same volume of fresh HBSS, or HBSS with inhibitor, when P-gp inhibitors were used in the study. At the end of the experiment 100 μL of medium was removed from the donor chamber in addition to medium collected from the receiver chamber during the study. The cells were then washed thoroughly in cold (4°C) PBS and cell membranes attached to the inserts were sonicated for 10 minutes in a sonicating water bath and centrifuged at 10,000 g for 10 minutes. Supernatant was frozen at -80°C until assayed. […] CL.vol=[…].vol = clearance volume (mL), n = time (min), Aa = amount in acceptor compartment at time n (pmols), Cd0 = concentration in donor compartment at time zero (nM), Vd = volume of the donor compartment (mL), Ca = concentration in acceptor compartment at the previous time point (nM), Vs = sample volume of previous time point (mL), Ac = amount of compound associated with the cells (pmol), Nfin = final time point (min). […] The cleared volume was plotted against time and the slope of the regression line was divided by the surface area to obtain the Papp values. […] The method from Davis and colleagues was adopted with slight modifications. Separations were performed using an Apollo C18 (5 μm, 4.6x150mm) column attached to a matched guard column (5 μm, 4.6x5.5 mm). […] The injection volume was 40 μL and column oven was maintained at 35°C. The analytes were detected at 222 nm and the retention time was 5.6 minutes. Assay developed by Pussard and co-workers were used and slight modifications were done to adjust laboratory conditions. Separation was done using a Prevail C18 (3 μm, 4.6x150mm) column attached to a Direct-connect^TM universal column prefilter. The mobile phase consisted of 20 mM (w/v) KH2PO4 in deionized water at pH 3.0 and acetonitrile (82:18) v/v. […] The injection volume was 40 μL and column oven was maintained at 30°C. The analytes were detected at 343 nm with a retention time of 2.4 minutes. […] Separations were performed using an Apollo C18 (5 μm, 4.6x150mm) column attached to matched guard column (5 μm, 4.6x5.5mm). […] The injection volume was 40 μL and column oven was maintained at 30°C. The analytes were detected at 660 nm with a retention time of 3.8 minutes. A 40 μL sample was spiked with 5 μL 0.5 mM artemisinin internal standard. […] The pipettor was adjusted to the maximum volume (100 μL). […] Pre-treated samples were loaded into the tips by gently aspirating and discarding into the same vial. The process was repeated 10 times in order to increase binding efficiency of drugs to the OMIX 96 C4 matrix. […] The LC-MS method described by […] and co-workers were modified to suit the LC-MS-MS conditions. […] Wexford, Ireland) at 40°C. […] Quantitation was performed in multiple reactions monitoring, MRM mode, using DUIS (ESI^+ and APCI^+) ion sources. […] The optimized mass spectra were acquired with an interface voltage of 4.5 kV, a detector voltage of 1.0 kV, a heat block temperature of 500°C and a desolvation temperature of 160°C.

[3] = tested on: Caco-2 cell monolayers; assay: as above; type: in vitro ADME, human
Experimental: as §1

[4] = cited from earlier work
[5] = molecular target: T1, P-glycoprotein (P-gp) (Homo sapiens, UniProt P08183); assay: Bidirectional transport of rhodamine123 through Caco-2 monolayers co-incubated with antimalarials (P-gp inhibitory properties); type: in vitro ADME
T1 construct: In-vitro Caco-2 cell monolayers were used here as a model for potential drug absorption related problems and P-gp mediated transport of drugs; endogenous in cells; host or cells: Caco-2 (human colon carcinoma, ATCC)
T1 sequence (P08183 whole entry): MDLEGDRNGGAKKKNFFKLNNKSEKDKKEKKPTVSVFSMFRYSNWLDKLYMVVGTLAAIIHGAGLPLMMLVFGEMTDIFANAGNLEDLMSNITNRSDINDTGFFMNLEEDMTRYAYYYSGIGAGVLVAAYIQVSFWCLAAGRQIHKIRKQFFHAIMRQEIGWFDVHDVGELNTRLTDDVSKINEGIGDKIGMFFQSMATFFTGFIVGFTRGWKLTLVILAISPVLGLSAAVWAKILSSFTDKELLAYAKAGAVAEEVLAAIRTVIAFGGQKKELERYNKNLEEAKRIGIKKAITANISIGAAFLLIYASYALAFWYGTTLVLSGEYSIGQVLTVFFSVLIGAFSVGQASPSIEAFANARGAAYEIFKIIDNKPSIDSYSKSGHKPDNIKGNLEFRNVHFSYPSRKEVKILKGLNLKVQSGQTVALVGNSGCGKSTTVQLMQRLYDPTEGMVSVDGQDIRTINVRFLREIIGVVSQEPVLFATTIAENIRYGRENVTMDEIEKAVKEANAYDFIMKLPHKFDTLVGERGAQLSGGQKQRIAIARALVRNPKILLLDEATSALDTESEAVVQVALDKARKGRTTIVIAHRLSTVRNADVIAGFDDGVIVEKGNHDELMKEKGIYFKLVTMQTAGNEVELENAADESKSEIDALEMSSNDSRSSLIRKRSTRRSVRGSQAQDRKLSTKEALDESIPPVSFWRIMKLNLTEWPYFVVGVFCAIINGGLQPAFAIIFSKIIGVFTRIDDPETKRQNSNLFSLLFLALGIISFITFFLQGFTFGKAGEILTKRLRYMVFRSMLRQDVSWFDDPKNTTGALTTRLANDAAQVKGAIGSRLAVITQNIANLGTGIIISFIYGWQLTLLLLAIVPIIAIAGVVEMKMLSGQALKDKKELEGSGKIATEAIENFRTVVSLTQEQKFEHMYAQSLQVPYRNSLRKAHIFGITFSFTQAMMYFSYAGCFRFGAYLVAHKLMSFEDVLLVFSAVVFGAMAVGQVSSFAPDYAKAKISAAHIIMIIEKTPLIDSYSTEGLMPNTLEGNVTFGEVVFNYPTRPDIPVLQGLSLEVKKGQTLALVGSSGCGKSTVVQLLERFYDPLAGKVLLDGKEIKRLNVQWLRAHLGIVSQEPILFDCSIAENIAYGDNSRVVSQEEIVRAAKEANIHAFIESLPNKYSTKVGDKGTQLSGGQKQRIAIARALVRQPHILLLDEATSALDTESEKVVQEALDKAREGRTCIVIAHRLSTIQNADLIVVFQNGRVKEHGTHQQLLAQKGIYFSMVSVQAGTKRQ
Experimental: The Caco-2 cells were seeded on 0.6 cm^2 […] Millipore PCF™ filter inserts at the cell density of 65,000 cells/cm^2 as done previously in the lab. Briefly, the cells were grown for 21–24 days to allow full maturation and formation of tight monolayers. The initial experiments were conducted in mid-40s passage cells and repeated in early 80s passage Caco-2 cells. The Trans epithelial electrical resistance (TEER) was measured immediately before and after the experiment using an epithelial voltage/ohm meter and an ENDOHM 12 chamber (World precision instruments, Sarasota, FL). TEER values were measured both before and after the study with readings above 300 Ω.cm^2 considered as acceptable for tight junctions. […] In order to maintain equivalent transport medium (HBSS/HBSS with inhibitor) level both outside and inside the chambers, 300 μL was used as medium in the apical chambers and 600 μL in the basolateral chambers. […] Drugs were co-incubated with MRCP, BCRP and ATP hydrolysis blockers to determine the involvement of other efflux mechanisms. Prior to the experiment, the transport medium, HBSS or HBSS with P-gp inhibitors were pre-incubated with the cells for 30 minutes. Following incubation, inserts were placed in new well plates and donor chamber is replaced with drug or drug with inhibitor and the receiver chamber with blank HBSS or HBSS with inhibitor. Transport medium was collected from the receiver chamber after stirring at time intervals of 30, 60, 90 and 120 minutes and was replaced with the same volume of fresh HBSS, or HBSS with inhibitor, when P-gp inhibitors were used in the study. At the end of the experiment 100 μL of medium was removed from the donor chamber in addition to medium collected from the receiver chamber during the study. The cells were then washed thoroughly in cold (4°C) PBS and cell membranes attached to the inserts were sonicated for 10 minutes in a sonicating water bath and centrifuged at 10,000 g for 10 minutes. Supernatant was frozen at -80°C until assayed. The Papp values of three well plates were determined using methods modified from Artursson’s group as described by Crowe and Lemaire.
CL.vol=Aa/{[Cd0×Vd−[Aa+(Ca×Vs)]−(Ac)×n/nfin]/Vd}
CL.vol = clearance volume (mL), n = time (min), Aa = amount in acceptor compartment at time n (pmols), Cd0 = concentration in donor compartment at time zero (nM), Vd = volume of the donor compartment (mL), Ca = concentration in acceptor compartment at the previous time point (nM), Vs = sample volume of previous time point (mL), Ac = amount of compound associated with the cells (pmol), Nfin = final time point (min). Papp = Apparent permeability (cm/sec) Rate of clearance (mL/min)=CL.vol / n Papp (cm/sec)=Rate of clearance / Surface area (cm^2)
The cleared volume was plotted against time and the slope of the regression line was divided by the surface area to obtain the Papp values. […] Mean Papp for Bas-Ap direction was divided by the Ap-Bas direction to obtain the efflux ratio and values above two were considered as drugs having true efflux transport.

[6] = tested on: P-gp; conditions: 20 μM, 96 hours, Caco-2, western blot vs control
Experimental: Caco-2 cells were seeded in 6 well plates at 10,000 cells/cm^2 for 21 days. Drugs and drug combinations at 20 μM prepared in cell growth medium were added on to the mature cells and exposed for 96 hours. After drug exposure, cells were washed three times using PBS and cell lysate was prepared in lysis buffer. The protein content was quantified using the 96 well micro-Lowry protein assay and regulation of P-gp was determined using western blotting.
The membrane was blocked using 2% casein in TBS and washed with TBST. The primary antibody; Mdr (G-1) mouse monoclonal IgG2b 200 and mouse anti-β actin were used as the antibody for β-actin, the reference protein. The antibody; HRP linked goat anti mouse IgG was used as the secondary antibody. The washed membrane was incubated in a BioRad clarity chemiluminescent substrate and enhancer was read and semi quantified using the BIORAD Chemidoc MPT imager with Image LabTM software.

[7] = tested on: Caco-2 intestinal epithelial cells; parameters: method as in PMID 8773952; conditions: earlier report ref 53; cited from earlier work
[8] = summary in abstract, methylene blue depending on the direction of transport, read-out: permeability

For `CCN(CC)Cc1cc(Nc2ccnc3cc(Cl)ccc23)ccc1O` [AQ, amodiaquine], the P-gp inhibitory properties ([1]; at 100 and 1000 μM ref 38) is listed as “P-gp inhibitory properties”, the Papp at 120 min ([2]; drug alone, read-out: Ap-Bas directional Papp, range over concentrations tested) is listed as 16 to 22 ×10⁻⁶ cm/s and the Papp at 120 min [2, 8] is listed as roughly 20 ×10⁻⁶ cm/s. The Papp at 120 min, 10 µM ([2]; Caco-2, Conc (μM) + inhibitor (μM): 10, first-named drug measured, read-out: Papp Ap-Bas) was 16 ± 1.1 ×10⁻⁶ cm/s, the Papp B→A at 120 min, 10 µM ([2]; Caco-2, Conc (μM) + inhibitor (μM): 10, first-named drug measured, read-out: Papp Bas-Ap) was 21.5 ± 0.9 ×10⁻⁶ cm/s and the Papp at 120 min, 100 µM ([2]; Caco-2, Conc (μM) + inhibitor (μM): 100, first-named drug measured, read-out: Papp Ap-Bas) was 22.5 ± 2 ×10⁻⁶ cm/s. The Papp B→A at 120 min, 100 µM ([2]; Caco-2, Conc (μM) + inhibitor (μM): 100, first-named drug measured, read-out: Papp Bas-Ap) was 23.3 ± 0.8 ×10⁻⁶ cm/s, the Net flow direction ([3]; Conc (μM) + inhibitor (μM): 10) was “Efflux (0.02) ^*” and the Net flow direction ([3]; Conc (μM) + inhibitor (μM): 100) was “Diffusion (0.74)”. The tmax ([4]; oral administration in human ref 46) was less than 1 h.

In the case of `C[C@H]1[C@H](OC(=O)CCC(=O)O)O[C@@H]2O[C@@]3(C)CC[C@H]4[C@H](C)CC[C@@H]1[C@@]24OO3` [ART, artesunate], the P-gp inhibitory properties ([5]; at 100 μM) is reported as “did not exhibit P-gp inhibitory properties”, the P-gp inhibitory properties ([5]; at test concentrations) is reported as “did not exhibit P-gp inhibitory properties” and the “regulation of P-gp expression” value [6] is reported as “slight up regulation of P-gp”. The Papp at 120 min ([2]; read-out: permeability across the gastrointestinal epithelium (class)) was 1 to 25 ×10⁻⁶ cm/s, the Papp at 120 min [2, 8] was roughly 10 ×10⁻⁶ cm/s and the efflux ratio at 120 min, 50 µM ([2]; Caco-2, Conc (μM) + inhibitor (μM): 50, Bas-Ap divided by Ap-Bas) was 1.5. For the same compound, the Papp at 120 min, 50 µM ([2]; Caco-2, Conc (μM) + inhibitor (μM): 50, first-named drug measured, read-out: Papp Ap-Bas) was 10.2 ± 0.3 ×10⁻⁶ cm/s, the Papp B→A at 120 min, 50 µM ([2]; Caco-2, Conc (μM) + inhibitor (μM): 50, first-named drug measured, read-out: Papp Bas-Ap) was 12.3 ± 0.1 ×10⁻⁶ cm/s and the Net flow direction ([3]; Conc (μM) + inhibitor (μM): 50) was “Efflux (0.002) ^*”. The Efflux ratio ([3]; Conc (μM) + inhibitor (μM): 50, Bas-Ap divided by Ap-Bas) was 1.2.

For `CN(C)c1ccc2nc3ccc(=[N+](C)C)cc-3sc2c1` [MB, methylene blue], the oral bioavailability ([4]; human volunteers, 100 mg ref 51) is listed as 10%.

In the case of `C/C=C/C[C@@H](C)C(=O)[C@H]1C(=O)N[C@@H](C(C)C)C(=O)N(C)CC(=O)N(C)[C@@H](CC(C)C)C(=O)N[C@@H](C(C)C)C(=O)N(C)[C@@H](CC(C)C)C(=O)N[C@@H](C)C(=O)N[C@H](C)C(=O)N(C)[C@@H](CC(C)C)C(=O)N(C)[C@@H](CC(C)C)C(=O)N(C)[C@@H](C(C)C)C(=O)N1C` [PSC-833, PSC 833], the P-gp transport inhibition ([1]; at 4 μM ref 19) is given as “completely eradicate P-gp mediated transport”.

In the case of `COC(=O)c1ccccc1-c1c2ccc(=N)cc-2oc2cc(N)ccc12` [Rh123, rhodamine123], the “Efflux ratio of rh123” value ([5]; 5 μM rh123, 100 μM antimalarial drugs section) is reported as 4.7, the efflux ratio at 120 min, 5 µM ([5]; human, Caco-2, probe rhodamine 123, 5 μM rh123, 100 μM antimalarial drugs section) is reported as roughly 5 and the efflux ratio at 120 min, 5 µM ([5]; human, Caco-2, probe rhodamine 123, 5 μM rh123, 300 μM antimalarial drugs section) is reported as 5.7. For the same compound, the Papp at 120 min, 5 µM ([5]; human, Caco-2, probe rhodamine 123, 5 μM rh123, 300 μM antimalarial drugs section, read-out: Papp of rh123 Ap-Bas) was 0.5 ± 0.1 ×10⁻⁶ cm/s.

In the case of `C[C@H]1[C@H](OC(=O)CCC(=O)[O-])O[C@@H]2O[C@@]3(C)CC[C@H]4[C@H](C)CC[C@@H]1[C@@]24OO3.[Na+]` [sodium artesunate], the Papp [7] is given as 4 ×10⁻⁶ cm/s.
